{
  "source": "PubChem BioAssay (NCI)",
  "experiment_in_all_cases": "DTP human tumour cell line panel, 48 h",
  "key": {"[1]": {"system": "HT29 colon"}, "[2]": {"system": "SK-MEL-2 melanoma"}, "[3]": {"system": "PC-3 prostate"}, "[4]": {"system": "SF-268 CNS"}, "[5]": {"system": "MDA-MB-435"}, "[6]": {"system": "IGROV1 ovarian"}, "[7]": {"system": "NCI-H522 lung"}, "[8]": {"system": "K-562 leukemia"}, "[9]": {"system": "EKVX NSCLC"}, "[10]": {"system": "SK-MEL-5 melanoma"}, "[11]": {"system": "RXF 393 renal"}, "[12]": {"system": "MCF7 breast"}, "[13]": {"system": "SNB-19 CNS"}, "[14]": {"system": "UACC-257 melanoma"}, "[15]": {"system": "ACHN renal"}, "[16]": {"system": "SN12C renal"}, "[17]": {"system": "OVCAR-3 ovarian"}, "[18]": {"system": "NCI-H23 lung"}, "[19]": {"system": "KM12 colon"}, "[20]": {"system": "OVCAR-5 ovarian"}, "[21]": {"system": "786-0 renal"}, "[22]": {"system": "TK-10 renal"}, "[23]": {"system": "SK-MEL-28 melanoma"}, "[24]": {"system": "UACC-62 melanoma"}, "[25]": {"system": "OVCAR-4 ovarian"}, "[26]": {"system": "UO-31 renal"}, "[27]": {"system": "HS 578T breast"}, "[28]": {"system": "T-47D breast"}, "[29]": {"system": "NCI-H226 lung"}, "[30]": {"system": "CAKI-1 renal"}, "[31]": {"system": "CCRF-CEM leukemia"}, "[32]": {"system": "RPMI-8226 leukemia"}, "[33]": {"system": "LOX IMVI melanoma"}, "[34]": {"system": "DU-145 prostate"}, "[35]": {"system": "M14 melanoma"}, "[36]": {"system": "BT-549 breast"}, "[37]": {"system": "SK-OV-3 ovarian"}, "[38]": {"system": "U251 CNS"}, "[39]": {"system": "HCT-116 colon"}, "[40]": {"system": "COLO 205 colon"}, "[41]": {"system": "HCC-2998 colon"}, "[42]": {"system": "SF-295 CNS"}, "[43]": {"system": "MALME-3M melanoma"}, "[44]": {"system": "NCI/ADR-RES ovarian"}, "[45]": {"system": "SF-539 CNS"}, "[46]": {"system": "MDA-MB-231 breast"}, "[47]": {"system": "HOP-62 NSCLC"}, "[48]": {"system": "HL-60(TB) leukemia"}, "[49]": {"system": "SNB-75 CNS"}},
  "note": "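Cultured in 96-well plates, cells were exposed to test compound for 48 hours across five concentrations. GI50: concentration for 50% inhibition of growth. TGI marks complete inhibition of growth.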",
  "data": [
    {"smiles": "CCN(CC)CC(O)c1cc(-c2ccc(Cl)cc2)nc2c(C)c(Cl)ccc12", "note": "(stereo not drawn)", "values": [
      {"measurement": "GI50", "setting": "[1]", "result": 1.55, "unit": "µM"},
      {"measurement": "TGI", "setting": "[1]", "result": 2.94, "unit": "µM"},
      {"measurement": "GI50", "setting": "[2]", "result": 2.1, "unit": "µM"},
      {"measurement": "TGI", "setting": "[2]", "result": 3.61, "unit": "µM"},
      {"measurement": "GI50", "setting": "[3]", "result": 1.6, "unit": "µM"},
      {"measurement": "TGI", "setting": "[3]", "result": 2.97, "unit": "µM"},
      {"measurement": "GI50", "setting": "[4]", "result": 1.61, "unit": "µM"},
      {"measurement": "TGI", "setting": "[4]", "result": 3.05, "unit": "µM"},
      {"measurement": "GI50", "setting": "[5]", "result": 1.74, "unit": "µM"},
      {"measurement": "TGI", "setting": "[5]", "result": 3.29, "unit": "µM"},
      {"measurement": "GI50", "setting": "[6]", "result": 1, "unit": "µM"},
      {"measurement": "TGI", "setting": "[6]", "result": 2.36, "unit": "µM"},
      {"measurement": "GI50", "setting": "[7]", "result": 1.85, "unit": "µM"},
      {"measurement": "TGI", "setting": "[7]", "result": 3.29, "unit": "µM"},
      {"measurement": "GI50", "setting": "[8]", "result": 1.66, "unit": "µM"},
      {"measurement": "TGI", "setting": "[8]", "result": 4.26, "unit": "µM"},
      {"measurement": "GI50", "setting": "[9]", "result": 1.46, "unit": "µM"},
      {"measurement": "TGI", "setting": "[9]", "result": 2.9, "unit": "µM"},
      {"measurement": "GI50", "setting": "[10]", "result": 1.7, "unit": "µM"},
      {"measurement": "TGI", "setting": "[10]", "result": 3.11, "unit": "µM"},
      {"measurement": "GI50", "setting": "[11]", "result": 1.71, "unit": "µM"},
      {"measurement": "TGI", "setting": "[11]", "result": 3.14, "unit": "µM"},
      {"measurement": "GI50", "setting": "[12]", "result": 1.5, "unit": "µM"},
      {"measurement": "TGI", "setting": "[12]", "result": 2.9, "unit": "µM"},
      {"measurement": "GI50", "setting": "[13]", "result": 1.86, "unit": "µM"},
      {"measurement": "TGI", "setting": "[13]", "result": 3.44, "unit": "µM"},
      {"measurement": "GI50", "setting": "[14]", "result": 2.12, "unit": "µM"},
      {"measurement": "TGI", "setting": "[14]", "result": 3.81, "unit": "µM"},
      {"measurement": "GI50", "setting": "[15]", "result": 1.63, "unit": "µM"},
      {"measurement": "TGI", "setting": "[15]", "result": 3.03, "unit": "µM"},
      {"measurement": "GI50", "setting": "[16]", "result": 1.5, "unit": "µM"},
      {"measurement": "TGI", "setting": "[16]", "result": 3.22, "unit": "µM"},
      {"measurement": "GI50", "setting": "[17]", "result": 1.51, "unit": "µM"},
      {"measurement": "TGI", "setting": "[17]", "result": 2.9, "unit": "µM"},
      {"measurement": "GI50", "setting": "[18]", "result": 1.78, "unit": "µM"},
      {"measurement": "TGI", "setting": "[18]", "result": 3.3, "unit": "µM"},
      {"measurement": "GI50", "setting": "[19]", "result": 1.72, "unit": "µM"},
      {"measurement": "TGI", "setting": "[19]", "result": 3.14, "unit": "µM"},
      {"measurement": "GI50", "setting": "[20]", "result": 1.74, "unit": "µM"},
      {"measurement": "TGI", "setting": "[20]", "result": 3.37, "unit": "µM"},
      {"measurement": "GI50", "setting": "[21]", "result": 1.69, "unit": "µM"},
      {"measurement": "TGI", "setting": "[21]", "result": 3.18, "unit": "µM"},
      {"measurement": "GI50", "setting": "[22]", "result": 1.85, "unit": "µM"},
      {"measurement": "TGI", "setting": "[22]", "result": 3.28, "unit": "µM"},
      {"measurement": "GI50", "setting": "[23]", "result": 1.78, "unit": "µM"},
      {"measurement": "TGI", "setting": "[23]", "result": 3.17, "unit": "µM"},
      {"measurement": "GI50", "setting": "[24]", "result": 1.84, "unit": "µM"},
      {"measurement": "TGI", "setting": "[24]", "result": 3.39, "unit": "µM"},
      {"measurement": "GI50", "setting": "[25]", "result": 1.9, "unit": "µM"},
      {"measurement": "TGI", "setting": "[25]", "result": 3.35, "unit": "µM"},
      {"measurement": "GI50", "setting": "[26]", "result": 0.549, "unit": "µM"},
      {"measurement": "TGI", "setting": "[26]", "result": 2.16, "unit": "µM"},
      {"measurement": "GI50", "setting": "[27]", "result": 1.87, "unit": "µM"},
      {"measurement": "TGI", "setting": "[27]", "result": 4.33, "unit": "µM"},
      {"measurement": "GI50", "setting": "[28]", "result": 1.59, "unit": "µM"},
      {"measurement": "TGI", "setting": "[28]", "result": 3.12, "unit": "µM"},
      {"measurement": "GI50", "setting": "[29]", "result": 1.65, "unit": "µM"},
      {"measurement": "TGI", "setting": "[29]", "result": 3.18, "unit": "µM"},
      {"measurement": "GI50", "setting": "[30]", "result": 1.29, "unit": "µM"},
      {"measurement": "TGI", "setting": "[30]", "result": 2.69, "unit": "µM"},
      {"measurement": "GI50", "setting": "[31]", "result": 2.21, "unit": "µM"},
      {"measurement": "TGI", "setting": "[31]", "result": 5.03, "unit": "µM"},
      {"measurement": "GI50", "setting": "[32]", "result": 2.41, "unit": "µM"},
      {"measurement": "TGI", "setting": "[32]", "result": 5.71, "unit": "µM"},
      {"measurement": "GI50", "setting": "[33]", "result": 1.41, "unit": "µM"},
      {"measurement": "TGI", "setting": "[33]", "result": 2.77, "unit": "µM"},
      {"measurement": "GI50", "setting": "[34]", "result": 1.7, "unit": "µM"},
      {"measurement": "TGI", "setting": "[34]", "result": 3.08, "unit": "µM"},
      {"measurement": "GI50", "setting": "[35]", "result": 1.91, "unit": "µM"},
      {"measurement": "TGI", "setting": "[35]", "result": 3.48, "unit": "µM"},
      {"measurement": "GI50", "setting": "[36]", "result": 2.27, "unit": "µM"},
      {"measurement": "TGI", "setting": "[36]", "result": 4.49, "unit": "µM"},
      {"measurement": "GI50", "setting": "[37]", "result": 1.71, "unit": "µM"},
      {"measurement": "TGI", "setting": "[37]", "result": 3.28, "unit": "µM"},
      {"measurement": "GI50", "setting": "[38]", "result": 1.77, "unit": "µM"},
      {"measurement": "TGI", "setting": "[38]", "result": 3.33, "unit": "µM"},
      {"measurement": "GI50", "setting": "[39]", "result": 1.66, "unit": "µM"},
      {"measurement": "TGI", "setting": "[39]", "result": 3.18, "unit": "µM"},
      {"measurement": "GI50", "setting": "[40]", "result": 1.77, "unit": "µM"},
      {"measurement": "TGI", "setting": "[40]", "result": 3.35, "unit": "µM"},
      {"measurement": "GI50", "setting": "[41]", "result": 1.77, "unit": "µM"},
      {"measurement": "TGI", "setting": "[41]", "result": 3.23, "unit": "µM"},
      {"measurement": "GI50", "setting": "[42]", "result": 1.86, "unit": "µM"},
      {"measurement": "TGI", "setting": "[42]", "result": 3.5, "unit": "µM"},
      {"measurement": "GI50", "setting": "[43]", "result": 1.93, "unit": "µM"},
      {"measurement": "TGI", "setting": "[43]", "result": 3.98, "unit": "µM"},
      {"measurement": "GI50", "setting": "[44]", "result": 1.71, "unit": "µM"},
      {"measurement": "TGI", "setting": "[44]", "result": 3.16, "unit": "µM"},
      {"measurement": "GI50", "setting": "[45]", "result": 1.49, "unit": "µM"},
      {"measurement": "TGI", "setting": "[45]", "result": 3.03, "unit": "µM"},
      {"measurement": "GI50", "setting": "[46]", "result": 1.47, "unit": "µM"},
      {"measurement": "TGI", "setting": "[46]", "result": 3.03, "unit": "µM"},
      {"measurement": "GI50", "setting": "[47]", "result": 1.57, "unit": "µM"},
      {"measurement": "TGI", "setting": "[47]", "result": 2.96, "unit": "µM"},
      {"measurement": "GI50", "setting": "[48]", "result": 2.1, "unit": "µM"},
      {"measurement": "TGI", "setting": "[48]", "result": 4.57, "unit": "µM"},
      {"measurement": "GI50", "setting": "[49]", "result": 1.37, "unit": "µM"},
      {"measurement": "TGI", "setting": "[49]", "result": 2.65, "unit": "µM"}
    ]}
  ]
}
